Measured values: patent US11840686B2, “Modulation of prekallikrein (PKK) expression” (Ionis Pharmaceuticals, Inc., priority 2013, dated 2023)
Strand notation (5' to 3'): a small letter for the sugar, then the base; units joined by * are phosphorothioate-linked, units joined directly phosphodiester-linked; [ ] holds rarer units or linkages, { } end groups; capitals alone tell only the bases. e = 2'-O-(2-methoxyethyl) (MOE); [5mC] = 5-methylcytosine; d = 2'-deoxy (DNA)

Test system: human PKK mRNA
Experiment: Antisense inhibition of human PKK mRNA in HepaRG cells, 5,000 nM (Example 2)
Format: cell-based
How it was run: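 Percent inhibition of PKK mRNA is reported relative to untreated cells, after adjustment for total RNA by RIBOGREEN. Gapmers of 16–20 nucleosides with 2′-MOE wings were delivered at 5,000 nM by electroporation into HepaRG cells and left for roughly 24 hours before RNA isolation.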

[1] = HepaRG cells, 5,000 nM antisense oligonucleotide; 5-10-5 gapmers; Table 17
[2] = HepaRG cells, 5,000 nM antisense oligonucleotide, human PKK mRNA; Table 18
[3] = human PKK mRNA, HepaRG cells, 5,000 nM antisense oligonucleotide, Table 18

Substance | % inhibition [1] [%] | % inhibition [2] [%] | other results
547736 (eT*eG*eG*eT*eA*dG*dG*dA*dT*dT*dG*dG*dT*dG*dG*eT*eG*eG*eG*eA; antisense) [compound 547736] | 54 |  | 
547737 (eT*eG*eG*eT*eG*dG*dT*dG*dG*dG*dA*dT*dT*dG*dG*eT*eG*e[5mC]*eT*eG; antisense) [compound 547737] | 59 |  | 
547738 (eT*eT*eG*eG*eT*dG*dG*dT*dG*dG*dG*dA*dT*dT*dG*eG*eT*eG*e[5mC]*eT; antisense) [compound 547738] | 41 |  | 
547739 (eA*eT*eT*eG*eG*dT*dG*dG*dT*dG*dG*dG*dA*dT*dT*eG*eG*eT*eG*e[5mC]; antisense) [compound 547739] | 12 |  | 
547740 (eA*eG*eG*eT*eG*dG*dT*dG*dG*dG*dA*dT*dT*dG*dG*eT*eG*eG*eT*eG; antisense) [compound 547740] | 30 |  | 
547741 (eT*eA*eG*eG*eT*dG*dG*dT*dG*dG*dG*dA*dT*dT*dG*eG*eT*eG*eG*eT; antisense) [compound 547741] | 47 |  | 
547742 (eA*eT*e[5mC]*eG*eG*dT*dG*dG*dT*dG*dG*dG*dA*dT*dT*eG*eG*eT*e[5mC]*eG; antisense) [compound 547742] | 57 |  | 
547743 (eG*eG*eT*eG*eG*dT*dG*dG*dG*dA*dT*dT*dG*dG*dT*eG*eG*e[5mC]*eG*eG; antisense) [compound 547743] | 61 |  | 
547744 (eT*eG*eG*eT*eG*dG*dT*dG*dG*dG*dA*dT*dT*dG*dG*eT*eG*eG*e[5mC]*eG; antisense) [compound 547744] | 65 |  | 
547745 (eT*eT*eG*eG*eT*dG*dG*dT*dG*dG*dG*dA*dT*dT*dG*eG*eT*eG*eG*e[5mC]; antisense) [compound 547745] | 55 |  | 
547746 (eG*eT*eT*eG*eG*dT*dG*dG*d[5mC]*dG*dG*dG*dA*dT*d[5mC]*eG*eG*eT*eG*eG; antisense) [compound 547746] | 0 |  | 
547748 (eG*eG*eT*eT*eG*dG*dT*dG*dG*d[5mC]*dG*dG*dG*dA*dT*e[5mC]*eG*eG*eT*eG; antisense) [compound 547748] | 78 |  | 
547750 (eT*eG*eG*eT*eT*dG*dG*dT*dG*dG*d[5mC]*dG*dG*dG*dA*eT*e[5mC]*eG*eG*eT; antisense) [compound 547750] | 41 |  | 
547752 (eG*eT*eG*eG*eT*dT*dG*dG*dT*dG*dG*d[5mC]*dG*dG*dG*eA*eT*e[5mC]*eG*eG; antisense) [compound 547752] | 41 |  | 
547754 (eG*eG*eG*eA*eT*dT*dG*dG*dT*dG*dG*dT*dT*dG*dG*eT*eG*eG*e[5mC]*eG; antisense) [compound 547754] | 47 |  | 
547756 (antisense eG*eG*eG*eT*e[5mC]*dT*dT*dG*d[5mC]*dT*d[5mC]*d[5mC]*dA*d[5mC]*d[5mC]*e[5mC]*eA*e[5mC]*eA*eT) [compound 547756] | 49 |  | 
547758 (antisense e[5mC]*e[5mC]*eA*eA*eG*dT*dA*dG*dT*dG*d[5mC]*dA*dA*dG*dG*e[5mC]*eA*eT*eG*eT) [compound 547758] | 24 |  | 
547760 (antisense eA*eT*e[5mC]*eA*eT*dG*d[5mC]*dT*dT*dA*d[5mC]*dT*dG*d[5mC]*dA*eA*eG*eT*eG*eA) [compound 547760] | 19 |  | 
547762 (antisense eT*eG*eA*eA*eA*d[5mC]*dT*dG*dG*dG*d[5mC]*dA*dG*dT*d[5mC]*e[5mC]*eT*eT*e[5mC]*e[5mC]) [compound 547762] | 0 |  | 
547764 (antisense e[5mC]*e[5mC]*eA*e[5mC]*e[5mC]*dT*dT*d[5mC]*dT*dT*dA*d[5mC]*dA*dT*dA*eT*eG*e[5mC]*eT*eA) [compound 547764] | 24 |  | 
547766 (antisense eG*e[5mC]*e[5mC]*eT*e[5mC]*dT*d[5mC]*dA*dG*dA*d[5mC]*dG*dG*d[5mC]*dA*e[5mC]*eA*eG*eA*e[5mC]) [compound 547766] | 0 |  | 
547768 (antisense eT*eT*eG*e[5mC]*e[5mC]*d[5mC]*dT*d[5mC]*dA*d[5mC]*dA*d[5mC]*dA*dT*dT*e[5mC]*eG*eA*eA*eT) [compound 547768] | 0 |  | 
547770 (antisense eT*eG*e[5mC]*eT*eT*dT*d[5mC]*dT*dG*d[5mC]*d[5mC]*d[5mC]*dA*dA*d[5mC]*e[5mC]*eT*e[5mC]*eT*eA) [compound 547770] | 48 |  | 
547772 (antisense e[5mC]*eT*eG*eT*eG*d[5mC]*dT*d[5mC]*d[5mC]*d[5mC]*dG*dG*d[5mC]*d[5mC]*dA*eT*eT*eA*eG*e[5mC]) [compound 547772] | 0 |  | 
547774 (antisense eG*eA*eG*eA*e[5mC]*dA*dG*dT*dT*dT*dG*dG*d[5mC]*dA*dA*eG*e[5mC]*eT*eA*e[5mC]) [compound 547774] | 46 |  | 
547776 (antisense eG*eG*eA*eG*eA*dG*dA*dG*dA*d[5mC]*dG*dG*d[5mC]*dA*d[5mC]*e[5mC]*e[5mC]*eT*eG*eT) [compound 547776] | 48 |  | 

Substance | % inhibition [1] [%] | % inhibition [2] [%] | other results
547778 (antisense eT*e[5mC]*eA*e[5mC]*e[5mC]*dT*dG*dT*dG*dA*dG*dT*dA*dA*d[5mC]*e[5mC]*eA*eA*eT*eA) [compound 547778] | 53 |  | 
547782 (antisense e[5mC]*e[5mC]*eA*eA*eG*dT*dA*dT*d[5mC]*dT*d[5mC]*dA*dT*dG*dT*eG*e[5mC]*e[5mC]*eT*eG) [compound 547782] | 67 |  | 
548706 (DNA e[5mC]*eT*eA*dG*dT*dT*dT*d[5mC]*d[5mC]*dT*dA*dT*dA*eA*e[5mC]*eT; antisense) [compound 548706] |  | 0 | 
548707 (DNA eA*e[5mC]*eT*dA*dG*dT*dT*dT*d[5mC]*d[5mC]*dT*dA*dT*eA*eA*e[5mC]; antisense) [compound 548707] |  | 10 | 
548708 (DNA eT*eA*e[5mC]*dT*dA*dG*dT*dT*dT*d[5mC]*d[5mC]*dT*dA*eT*eA*eA; antisense) [compound 548708] |  | 0 | 
548709 (DNA eG*eT*eA*d[5mC]*dT*dA*dG*dT*dT*dT*d[5mC]*d[5mC]*dT*eA*eT*eA; antisense) [compound 548709] |  | 0 | 
548710 (DNA eT*eG*eT*dA*d[5mC]*dT*dA*dG*dT*dT*dT*d[5mC]*d[5mC]*eT*eA*eT; antisense) [compound 548710] |  | 0 | 
548711 (DNA e[5mC]*eT*eG*dT*dA*d[5mC]*dT*dA*dG*dT*dT*dT*d[5mC]*e[5mC]*eT*eA; antisense) [compound 548711] |  | 21 | 
548712 (DNA eA*e[5mC]*eT*dG*dT*dA*d[5mC]*dT*dA*dG*dT*dT*dT*e[5mC]*e[5mC]*eT; antisense) [compound 548712] |  | 9 | 
548713 (DNA e[5mC]*eA*e[5mC]*dT*dG*dT*dA*d[5mC]*dT*dA*dG*dT*dT*eT*e[5mC]*e[5mC]; antisense) [compound 548713] |  | 33 | 
548714 (DNA eT*e[5mC]*eA*d[5mC]*dT*dG*dT*dA*d[5mC]*dT*dA*dG*dT*eT*eT*e[5mC]; antisense) [compound 548714] |  | 15 | 
548715 (DNA eA*eT*e[5mC]*dA*d[5mC]*dT*dG*dT*dA*d[5mC]*dT*dA*dG*eT*eT*eT; antisense) [compound 548715] |  | 0 | 
548716 (DNA eT*eA*eT*d[5mC]*dA*d[5mC]*dT*dG*dT*dA*d[5mC]*dT*dA*eG*eT*eT; antisense) [compound 548716] |  | 10 | 
548717 (DNA eA*e[5mC]*eT*dA*dG*dT*dT*dT*d[5mC]*d[5mC]*dT*dA*dT*eA*eA*e[5mC]*eT; antisense) [compound 548717] |  | 0 | 
548718 (DNA eT*eA*e[5mC]*dT*dA*dG*dT*dT*dT*d[5mC]*d[5mC]*dT*dA*eT*eA*eA*e[5mC]; antisense) [compound 548718] |  | 0 | 
548719 (DNA eG*eT*eA*d[5mC]*dT*dA*dG*dT*dT*dT*d[5mC]*d[5mC]*dT*eA*eT*eA*eA; antisense) [compound 548719] |  | 0 | 
548720 (DNA eT*eG*eT*dA*d[5mC]*dT*dA*dG*dT*dT*dT*d[5mC]*d[5mC]*eT*eA*eT*eA; antisense) [compound 548720] |  | 0 | 
548721 (DNA e[5mC]*eT*eG*dT*dA*d[5mC]*dT*dA*dG*dT*dT*dT*d[5mC]*e[5mC]*eT*eA*eT; antisense) [compound 548721] |  | 27 | 
548722 (DNA eA*e[5mC]*eT*dG*dT*dA*d[5mC]*dT*dA*dG*dT*dT*dT*e[5mC]*e[5mC]*eT*eA; antisense) [compound 548722] |  | 26 | 
548723 (DNA e[5mC]*eA*e[5mC]*dT*dG*dT*dA*d[5mC]*dT*dA*dG*dT*dT*eT*e[5mC]*e[5mC]*eT; antisense) [compound 548723] |  | 62 | 
548724 (DNA eT*e[5mC]*eA*d[5mC]*dT*dG*dT*dA*d[5mC]*dT*dA*dG*dT*eT*eT*e[5mC]*e[5mC]; antisense) [compound 548724] |  | 61 | 
548725 (DNA eA*eT*e[5mC]*dA*d[5mC]*dT*dG*dT*dA*d[5mC]*dT*dA*dG*eT*eT*eT*e[5mC]; antisense) [compound 548725] |  | 32 | 
548728 (DNA eT*eA*e[5mC]*eT*dA*dG*dT*dT*dT*d[5mC]*d[5mC]*dT*dA*dT*eA*eA*e[5mC]; antisense) [compound 548728] |  | 0 | 
548729 (DNA eG*eT*eA*e[5mC]*dT*dA*dG*dT*dT*dT*d[5mC]*d[5mC]*dT*dA*eT*eA*eA; antisense) [compound 548729] |  |  | % inhibition [3]: 13%
548730 (DNA eT*eG*eT*eA*d[5mC]*dT*dA*dG*dT*dT*dT*d[5mC]*d[5mC]*dT*eA*eT*eA; antisense) [compound 548730] |  |  | % inhibition [3]: 0%
